Results published in patent publication US6852327B1, “Composition attracting insects pertaining to the coleoptera family and use thereof in the control of plagues in palm-trees and related plants” (Instituto Nacional de Investigacion y Tecnologia Agraria y …, priority 1998, dated 2005).

System: Rhynchophorus palmarum
Test: Field trapping study of Rhynchophorus palmarum control in palm tree groves (baited traps, 1 month, French Guiana)
Assay type: in vivo
Conditions: second (last) Total capture column; period not printed separately (study dates March-May 1997); total insects in all traps with the same test substance
Excerpt: Study of Rhynchophorus palmarum Control in Palm Tree Groves
This experiment was designed to assess the control of Rhynchophorus palmarum control in ornamental, palm trees and in coconut palms according to the characteristics indicated hereunder.
Insect species against which the experiment was designed: Rhynchophorus palmarum, Coleoptera curculionidae, Rhynchophorinae.
Testing area: Cayenne—Remire Montjoly, French Guiana.
Plants: Ornamental palm tree groves and coconut palms.
Substances tested: • (a) Vegetal bait (sugar cane in 25 cm lengths cut lengthwise through the middle and fermented during 24 hours at 28° C., and Rhynchophorol (synthetic feromone) • (b) INIA 1 composition and Rhynchophorol. • (c) INIA 2 composition and Rhynchophorol. • (c) INIA 3 composition and Rhynchophorol. • (e) Reference specimen (only Rhynchophorol).
A randomly selected “double blind” test was repeated 4 times in traps installed over trash cans modified to include spreaders comprising a supporting agent capable of absorbing/adsorbing and releasing the compositions to be tested and designed to emit said compositions.
The vegetal bait, namely cut-up cane, was arranged in a bundle on the bottom of the trap can. Feromone (Rhynchophorol) was released from small hermetic plastic 200 μm envelopes loaded with 0.2 cm^3 of synthetic feromone spreading a minimum of 2 mg/day through pores in the trap. […]

In the case of C/C=C/C(O)CC(C)C (stereo not shown) [(e), Rhynchophorol], the Total capture is reported as 3.
